Read-outs that look alike come from different tables or passages of the source. Each block holds one compound with its values, some of them ahead of it.
Columns and labels:
[1] = molecular target: CFTR (Homo sapiens, UniProt P13569); experiment: Membrane Potential Dye, Enteroid Assay B; format: cell-based
Method in brief: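 Human intestinal enteroids seeded at 5000 cells/well, treated with compound 18-24 h at 37 °C, then loaded 25 min with methyl oxonol membrane-potential dye plus CaCC blockers. Chloride transport started in chloride-free buffer with 10 μM forskolin, 100 μM IBMX and 300 nM Compound III, read 15 min; expressed as % of triple-combination control.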

[2] = molecular target: T1, CFTR (Homo sapiens, UniProt P13569, DEL508-508); experiment: HBE2 Assay: Ussing chamber assay of CFTR-mediated short-circuit currents in F508del/MF-HBE cells with 44 nM (6R,12R)-17-amino-12-methyl-6,15-bis(trifluoromethyl)-13,19-dioxa-3,4,18-triazatricyclo[12.3.1.12,5]nonadeca-1(18),2,4,14,16-pentaen-6-ol; format: cell-based; conditions: 3 μM with 44 nM (6R,12R)-17-amino-12-methyl-6,15-bis(trifluoromethyl)-13,19-dioxa-3,4,18-triazatricyclo[12.3.1.12,5]nonadeca-1(18),2,4,14,16-pentaen-6-ol, 18-24 hours, 20% human serum
T1 construct: endogenous in cells; host or cells: primary human bronchial epithelial cells, F508del/MF genotype
Experimental: Ussing chamber experiments were performed using human bronchial epithelial (HBE) cells derived from CF subjects heterozygous for F508del and a minimal function CFTR mutation (F508del/MF-HBE) and cultured as previously described (Neuberger T, Burton B, Clark H, Van Goor F Methods Mol Biol 2011:741:39-54). After four days the apical media was removed, and the cells were grown at an air liquid interface for >14 days prior to use.
To isolate the CFTR-mediated short-circuit (ISC) current, F508del/MF-HBE grown on Costar® Snapwell™ cell culture inserts were mounted in an Ussing chamber and the transepithelial ISC was measured under voltage-clamp recording conditions (Vhold=0 mV) at 37° C. The basolateral solution contained (in mM) 145 NaCl, 0.83 K2HPO4, 3.3 KH2PO4, 1.2 MgCl2, 1.2 CaCl2), 10 Glucose, 10 HEPES (pH adjusted to 7.4 with NaOH) and the apical solution contained (in mM) 145 NaGluconate, 1.2 MgCl2, 1.2 CaCl2), 10 glucose, 10 HEPES (pH adjusted to 7.4 with NaOH) and 30 μM amiloride to block the epithelial sodium channel. Forskolin (20 μM) was added to the apical surface to activate CFTR, followed by apical addition of a CFTR inhibitor cocktail consisting of BPO, GlyH-101, and CFTR inhibitor 172 (each at 20 μM final assay concentration) to specifically isolate CFTR currents. The CFTR-mediated ISC (μA/cm^2) for each condition was determined from the peak forskolin response to the steady-state current following inhibition.
The activity of the CFTR corrector compounds on the CFTR-mediated ISC was determined in Ussing chamber studies as described above. The F508del/MF-HBE cell cultures were either incubated with the corrector compounds at a range of concentrations in combination with 44 nM (6R,12R)-17-amino-12-methyl-6,15-bis(trifluoromethyl)-13,19-dioxa-3,4,18-triazatricyclo[12.3.1.12,5]nonadeca-1(18),2,4,14,16-pentaen-6-ol or were incubated with the corrector compounds at a single fixed concentration of 1 and 3 μM in combination with 44 nM (6R,12R)-17-amino-12-methyl-6,15-bis(trifluoromethyl)-13,19-dioxa-3,4,18-triazatricyclo[12.3.1.12,5]nonadeca-1(18),2,4,14,16-pentaen-6-ol for 18-24 hours at 37° C. and in the presence of 20% human serum. The concentration of corrector compounds with 44 nM (6R,12R)-17-amino-12-methyl-6,15-bis(trifluoromethyl)-13,19-dioxa-3,4,18-triazatricyclo[12.3.1.12,5]nonadeca-1(18),2,4,14,16-pentaen-6-ol during the 18-24 hours incubations was kept constant throughout the Ussing chamber measurement of the CFTR-mediated ISC to ensure compounds were present throughout the entire experiment.

T1 sequence (P13569 with tags, fused parts or gaps DEL508-508): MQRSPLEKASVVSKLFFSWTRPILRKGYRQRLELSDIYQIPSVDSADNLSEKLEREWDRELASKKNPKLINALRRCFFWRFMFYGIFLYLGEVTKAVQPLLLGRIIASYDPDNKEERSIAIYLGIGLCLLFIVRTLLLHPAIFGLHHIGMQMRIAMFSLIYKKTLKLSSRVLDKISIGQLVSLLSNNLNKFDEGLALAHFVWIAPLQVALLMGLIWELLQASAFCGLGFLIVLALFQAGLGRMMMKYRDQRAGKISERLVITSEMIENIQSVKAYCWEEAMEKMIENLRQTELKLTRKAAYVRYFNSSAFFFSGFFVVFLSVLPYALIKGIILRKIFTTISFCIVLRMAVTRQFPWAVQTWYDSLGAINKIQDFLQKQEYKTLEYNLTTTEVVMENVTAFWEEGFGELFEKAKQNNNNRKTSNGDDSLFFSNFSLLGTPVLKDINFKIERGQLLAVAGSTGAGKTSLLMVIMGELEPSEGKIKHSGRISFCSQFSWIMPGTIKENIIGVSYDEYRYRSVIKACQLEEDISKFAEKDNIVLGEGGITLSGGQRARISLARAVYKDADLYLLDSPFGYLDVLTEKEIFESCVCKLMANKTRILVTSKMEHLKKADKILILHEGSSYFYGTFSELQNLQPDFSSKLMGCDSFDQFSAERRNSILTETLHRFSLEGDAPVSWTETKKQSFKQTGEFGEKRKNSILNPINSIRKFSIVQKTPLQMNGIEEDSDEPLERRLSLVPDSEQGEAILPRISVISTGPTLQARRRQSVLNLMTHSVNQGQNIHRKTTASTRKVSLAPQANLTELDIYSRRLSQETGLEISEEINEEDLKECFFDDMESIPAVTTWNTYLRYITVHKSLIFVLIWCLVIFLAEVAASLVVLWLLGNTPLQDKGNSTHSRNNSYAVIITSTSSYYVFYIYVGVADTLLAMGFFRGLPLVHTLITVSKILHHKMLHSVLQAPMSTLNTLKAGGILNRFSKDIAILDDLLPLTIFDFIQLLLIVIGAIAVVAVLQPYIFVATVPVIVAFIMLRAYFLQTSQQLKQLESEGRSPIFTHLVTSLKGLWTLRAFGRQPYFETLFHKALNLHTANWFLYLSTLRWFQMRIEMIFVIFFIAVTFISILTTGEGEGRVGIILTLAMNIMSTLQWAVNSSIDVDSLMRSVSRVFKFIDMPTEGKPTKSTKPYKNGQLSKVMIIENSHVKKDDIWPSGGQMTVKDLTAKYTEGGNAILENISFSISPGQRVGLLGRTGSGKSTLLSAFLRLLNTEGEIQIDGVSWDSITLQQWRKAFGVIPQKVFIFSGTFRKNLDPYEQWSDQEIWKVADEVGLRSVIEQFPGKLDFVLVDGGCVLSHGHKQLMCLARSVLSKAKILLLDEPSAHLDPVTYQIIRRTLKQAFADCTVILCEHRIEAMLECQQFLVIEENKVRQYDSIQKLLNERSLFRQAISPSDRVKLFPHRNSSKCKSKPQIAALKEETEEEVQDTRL
Chain of CFTR (Homo sapiens, UniProt P13569) (P13569 with tags, fused parts or gaps DEL508-508): as above

Structure (SMILES): Cc1cccc(C)c1-c1nc2nc(c1Br)OC[C@@H](CC(C)C)N(C1CC3(CC3)C1)C(=O)c1cccc(c1)S(=O)(=O)N2
ring closure, isolated yield (from Cc1cccc(C)c1-c1nc(NS(=O)(=O)c2cccc(C(=O)O)c2)nc(OC[C@@H](CC(C)C)NC2CC3(CC3)C2)c1Br, amide bond, 13-membered ring, HATU/DIEA, NMP, 105.0 mM, 24.0 h): 53%

Structure (SMILES): Cc1cccc(C)c1-c1nc2nc(c1C)OC[C@@H](CC(C)C)N(C1CC3(CCN(C(=O)OC(C)(C)C)CC3)C1)C(=O)c1cccc(c1)S(=O)(=O)N2
ring closure, isolated yield (from Cc1cccc(C)c1-c1nc(NS(=O)(=O)c2cccc(C(=O)O)c2)nc(OC[C@@H](CC(C)C)NC2CC3(CCN(C(=O)OC(C)(C)C)CC3)C2)c1C, amide bond, 13-membered ring, HATU/DIEA, DMF, 9.1 mM, 3.0 h, 2 steps): 46%

Structure (SMILES): Cc1cccc(C)c1-c1nc2nc(c1C)OC[C@@H](CC(C)C)N(C1CC3(CC(NC(=O)OC(C)(C)C)C3)C1)C(=O)c1cccc(c1)S(=O)(=O)N2 (some centres unmarked)
ring closure, isolated yield (from Cc1cccc(C)c1-c1nc(NS(=O)(=O)c2cccc(C(=O)O)c2)nc(OC[C@@H](CC(C)C)NC2CC3(CC(NC(=O)OC(C)(C)C)C3)C2)c1C, amide bond, 13-membered ring, HATU/DIEA, DMF, 14.1 mM, 3.0 h, 2 steps): 45%

Structure (SMILES): CC(C)(C)c1c(Cl)nc2nc1OC1CN(Cc3ccccc31)C(=O)c1cccc(c1)S(=O)(=O)N2 (centres unmarked)
ring closure, isolated yield (from CC(C)(C)c1c(Cl)nc(NS(=O)(=O)c2cccc(C(=O)N3Cc4ccccc4C(O)C3)c2)nc1Cl, snar bond, 13-membered ring, NaH, NMP, 8.0 mM, 70.0 °C, 2.0 h): 39%

Structure (SMILES): CCc1c(Cl)nc2nc1Oc1cccc(c1)C(=O)Nc1cccc(c1)S(=O)(=O)N2
ring closure, isolated yield (from CCc1c(Cl)nc(NS(=O)(=O)c2cccc(N)c2)nc1Oc1cccc(C(=O)O)c1, amide bond, 14-membered ring, HATU/DIEA, DMF, 53.0 mM, 0.33 h, 2 steps): 19%
ring closure, isolated yield (from CCc1c(Cl)nc(NS(=O)(=O)c2cccc(N)c2)nc1Oc1cccc(C(=O)O)c1, amide bond, 14-membered ring, HATU/DIEA, DMF, 50.0 °C, 2.5 h, 4 steps): 8%

Structure (SMILES): Cc1cccc(C)c1-c1nc2nc(c1Br)O[C@H](C)CNC(=O)c1cccc(c1)S(=O)(=O)N2
ring closure, isolated yield (from Cc1cccc(C)c1-c1nc(NS(=O)(=O)c2cccc(C(=O)O)c2)nc(O[C@H](C)CN)c1Br, amide bond, 13-membered ring, HATU/HOBt/DIEA, DMF, 31.1 mM, 0.42 h): 54%

Structure (SMILES): C[C@@H]1CC=CCC[C@](OCc2ccccc2)(C(F)(F)F)C2=NN=C(O2)c2nc(c(C(F)(F)F)cc2N(C(=O)OC(C)(C)C)C(=O)OC(C)(C)C)O1 (mixture of isomers)
ring closure, isolated yield (from C=CCC[C@@](OCc1ccccc1)(c1nnc(-c2nc(O[C@H](C)CC=C)c(C(F)(F)F)cc2N(C(=O)OC(C)(C)C)C(=O)OC(C)(C)C)o1)C(F)(F)F, rcm bond, 14-membered ring, Grubbs 1st generation, DCE, 8.92 mM, 75.0 °C, 5.25 h): 53%

Structure (SMILES): CCc1c(Cl)nc2nc1Oc1ccc(Cl)c(c1)C(=O)Nc1cccc(c1)S(=O)(=O)N2
ring closure, isolated yield (from CCc1c(Cl)nc(NS(=O)(=O)c2cccc(N)c2)nc1Oc1ccc(Cl)c(C(=O)O)c1, amide bond, 14-membered ring, HATU/DIEA, DMF, 0.42 h, 3 steps): 7%

Second part, led by results:

Ent. B Max Activity [1]: ++ (++ is 30-60%)
EC50 ([1]; read-out: Ent. B EC50): 1000 to 3000 nM
Structure (SMILES): Cc1cccc(C)c1-c1nc2nc(c1C)OC[C@@H](CCC(C)(C)O)N(C1CC3(CC3)C1)C(=O)c1cccc(c1)S(=O)(=O)N2 [Compound 106, (11R)-6-(2,6-dimethylphenyl)-11-(3-hydroxy-3-methyl-butyl)-7-methyl-2,2-dioxo-12-spiro[2.3]hexan-5-yl-9-oxa-2λ^6-thia-3,5,12,19-tetrazatricyclo[12.3.1.14,8]nonadeca-1(18),4(19),5,7,14,16-hexaen-13-one]
ring closure, isolated yield (from Cc1cccc(C)c1-c1nc(NS(=O)(=O)c2cccc(C(=O)O)c2)nc(OC[C@@H](CCC(C)(C)O)NC2CC3(CC3)C2)c1C, amide bond, 13-membered ring, T3P/TEA, DMF/EtOAc, 51.6 mM, 17.0 h): 31%

HBE2 Activity at 3 μM (%) [2]: +++ (+++ is >60%)
Structure (SMILES): Cc1cccc(C)c1-c1nc2nc(c1C)OC[C@@H](CC(C)(C)C)N(c1cnn(C)c1CC(C)C)C(=O)c1cccc(c1)S(=O)(=O)N2 [Compound 364, (11R)-6-(2,6-Dimethylphenyl)-11-(2,2-dimethylpropyl)-12-(5-isobutyl-1-methyl-pyrazol-4-yl)-7-methyl-2,2-dioxo-9-oxa-2λ^6-thia-3,5,12,19-tetrazatricyclo[12.3.1.14,8]nonadeca-1(18),4(19),5,7,14,16-hexaen-13-one]

HBE2 Activity at 3 μM (%) [2]: +++ (+++ is >60%)
Structure (SMILES): Cc1cccc(C)c1-c1nc2nc(c1C)OC[C@@H](CC(C)(C)C)N(Cc1cncc(N(C)C3CCC3)n1)C(=O)c1cccc(c1)S(=O)(=O)N2 [Compound 359]

HBE2 Activity at 3 μM (%) [2]: +++ (+++ is >60%)
Structure (SMILES): Cc1cccc(C)c1-c1nc2nc(c1F)OC[C@@H](CCC(C)(C)C)N(Cc1cncc(N3CCC[C@H]3C)n1)C(=O)c1cccc(c1)S(=O)(=O)N2 [Compound 366]

HBE2 Activity at 3 μM (%) [2]: +++ (+++ is >60%)
Structure (SMILES): Cc1cccc(CC(C)C)c1-c1nc2nc(c1C)OC[C@@H](CC(C)(C)C)N(Cc1cncc(N(C)C3CCC3)n1)C(=O)c1cccc(c1)S(=O)(=O)N2 (atropisomer, axis not shown) [Compound 357]

HBE2 Activity at 3 μM (%) [2]: +++ (+++ is >60%)
Structure (SMILES): Cc1cccc(OC(C)C)c1-c1nc2nc(c1C)OC[C@@H](CC(C)(C)C)N(Cc1ncc(N3CCC(C)(C)C3)cn1)C(=O)c1cccc(c1)S(=O)(=O)N2 (atropisomer, axis not shown) [Compound 356]

HBE2 Activity at 3 μM (%) [2]: +++ (+++ is >60%)
Structure (SMILES): Cc1cccc(C)c1-c1nc2nc(c1F)OC[C@@H](CCC(C)(C)C)N(Cc1cncc(N3CCCC[C@H]3C)n1)C(=O)c1cccc(c1)S(=O)(=O)N2 [Compound 367]

HBE2 Activity at 3 μM (%) [2]: +++ (+++ is >60%)
Structure (SMILES): Cc1cccc(C)c1-c1nc2cc(c1C(F)(F)F)OC[C@@H](CC(C)(C)C)N(Cc1cncc(N(C)C3CCC3)n1)C(=O)c1cccc(c1)S(=O)(=O)N2 [Compound 363, (11R)-12-[[6-[Cyclobutyl(methyl)amino]pyrazin-2-yl]methyl]-6-(2,6-dimethylphenyl)-11-(2,2-dimethylpropyl)-2,2-dioxo-7-(trifluoromethyl)-9-oxa-2λ^6-thia-3,5,12-triazatricyclo[12.3.1.14,8]nonadeca-1(18),4(19),5,7,14,16-hexaen-13-one]

HBE2 Activity at 3 μM (%) [2]: +++ (+++ is >60%)
Structure (SMILES): Cc1cccc(CCC(C)C)c1-c1nc2nc(c1C)OC[C@@H](CC(C)(C)C)N(Cc1ncc(OC(C)C)cn1)C(=O)c1cccc(c1)S(=O)(=O)N2 (atropisomer, axis not shown; (P)) [Compound 334, (5P,11R)-11-(2,2-Dimethylpropyl)-7-methyl-6-[2-methyl-6-(3-methylbutyl)phenyl]-12-{[5-(propan-2-yloxy)pyrimidin-2-yl]methyl}-9-oxa-2λ^6-thia-3,5,12,19-tetraazatricyclo[12.3.1.14,8]nonadeca-1(17),4(19),5,7,14(18),15-hexaene-2,2,13-trione]

— patent US20230374038A1, “MODULATORS OF CYSTIC FIBROSIS TRANSMEMBRANE CONDUCTANCE REGULATOR” (VERTEX PHARMACEUTICALS INCORPORATED, priority 2020, published 2023)
